Here are results for one compound from patent publication US11911480B2, “Self-emulsifying composition of ω-3 fatty acid” (priority 2015, dated 2024).

Where two headings read alike, the source gives them in different places.

The conditions of data set [1]: human, in vivo, po, 1800 mg.
Experimental: The capsule having the self-emulsifying composition of the present invention containing 80% by weight of EPA-E as its content was orally administered to human (12 cases, healthy adult males of 20 to 40 years old with a body weight of 55.0 to 77.0 kg and a BMI of 18.5 or more but less than 25.0) under fasting conditions to evaluate the change of blood EPA concentration. The self-emulsifying composition in an amount corresponding to 1800 mg of EPA-E was orally administered in single dose to each human who had been fasted since 10 hours or more before the administration by using 200 mL of water in the morning under fasting. The blood was collected 0.5, 1, 1.5, 2, 3, 4, 5, 6, 7, 8, 9, 10, 12, 15, 18, 24, 48 and 72 hours after the administration. Immediately after the collection, the blood was cooled on ice, and centrifuged at 2000×g at 4° C. for 10 minutes to separately collect the plasma. After having stored the resulting plasma at a temperature not higher than −20° C. in frozen state, concentration of the EPA in the plasma was measured by LC/MS/MS (method in which a sample is isolated by liquid chromatography, then subjected to mass spectrometry to conduct separation and measurement thereon). […]
In the calculation of each parameter, correction was made by subtracting the blood EPA concentration before the administration from the measured blood concentration.
For data set [2] the following is noted: human, in vivo, po, 3600 mg.
Experimental: The capsule having the self-emulsifying composition of the present invention containing 80% by weight of EPA-E as its content was orally administered to human (12 cases, healthy adult males of 20 to 40 years old with a body weight of 55.0 to 77.0 kg and a BMI of 18.5 or more but less than 25.0) under fasting conditions to evaluate the change of blood EPA concentration. The self-emulsifying composition in an amount corresponding to 1800 mg of EPA-E was orally administered in single dose to each human who had been fasted since 10 hours or more before the administration by using 200 mL of water in the morning under fasting. The blood was collected 0.5, 1, 1.5, 2, 3, 4, 5, 6, 7, 8, 9, 10, 12, 15, 18, 24, 48 and 72 hours after the administration. […] After having stored the resulting plasma at a temperature not higher than −20° C. in frozen state, concentration of the EPA in the plasma was measured by LC/MS/MS (method in which a sample is isolated by liquid chromatography, then subjected to mass spectrometry to conduct separation and measurement thereon). […]
This test was conducted on 6 humans. […] In the calculation of each parameter, correction was made by subtracting the blood EPA concentration before the administration from the measured blood concentration.

Consider `CC/C=C\C/C=C\C/C=C\C/C=C\C/C=C\CCCC(=O)OCC` [EPA-E stock solution, Ethyl eicosapentaenoate], for which the results for the highest concentration (Cmax) in data set [1] and in data set [2] were 4.6 µg/mL and 3.6 µg/mL, respectively.
